Experimental findings from patent publication US20260042731A1, “(2,4-DICHLOROPHENOXY)ACETIC ACID ANALOGS” (CORTEVA AGRISCIENCE LLC, priority 2022, published 2026) are described below.

Series [1] has as its system glyphosate resistant Conyza canadensis (L.) (ERICA), horseweed. As to the kind of experiment: Postemergence herbicide evaluation, growth of Conyza canadensis (ERICA). As to conditions: Erigeron canadensis, post-emergence, read-out: Ave. ERICA. It is filed as in vivo.
Series [2] deals with Abutilon theophrasti (ABUTH), velvetleaf. As to the kind of experiment: Postemergence herbicide evaluation, growth of Abutilon theophrasti (ABUTH). Format: in vivo. As to conditions: Abutilon theophrasti, post-emergence, read-out: AVE. ABUTH.
The subject of series [3] is Ambrosia artemisiifolia (AMBEL), common ragweed. As to the kind of experiment: Postemergence herbicide evaluation, growth of Ambrosia artemisiifolia (AMBEL). Format: in vivo. The following applies: Ambrosia artemisiifolia, post-emergence, read-out: AVE. AMBEL.
Series [4] has as its system Chenopodium album (CHEAL), common lambsquarters. As to the kind of experiment: Postemergence herbicide evaluation, growth of Chenopodium album (CHEAL). Format: in vivo. The following applies: Chenopodium album, post-emergence, read-out: Ave. CHEAL.
Series [5] can be described thus: Volatility of compounds measured by thermogravimetric analysis (TGA). Format: physicochemical.
In series [6] the test system is weeds (ABUTH, AMATA, AMBEL, CHEAL, ERICA). As to the kind of experiment: Postemergence herbicide evaluation, overall average % weed control across ABUTH, AMATA, AMBEL, CHEAL, ERICA. The following applies: post-emergence, read-out: Overall Ave % Weed Control. It is filed as in vivo.
The subject of series [7] is Amaranthus rudis (AMATA), tall water hemp. As to the kind of experiment: Postemergence herbicide evaluation, growth of Amaranthus rudis (AMATA). Format: in vivo. The following applies: Amaranthus tuberculatus, post-emergence, read-out: Ave. AMATA.
Setting [8] is: 168 h, 280 g ae/ha, 7 DAA, percent reduction in plant size relative to untreated control.
The mark [9] stands for this setting: 168 h, 560 g ae/ha, 7 DAA, percent reduction in plant size relative to untreated control.
The mark [10] stands for this setting: 336 h, 280 g ae/ha, 14 DAA, percent reduction in plant size relative to untreated control.
The mark [11] stands for this setting: 336 h, 560 g ae/ha, 14 DAA, percent reduction in plant size relative to untreated control.
Where [12] appears, read: 504 h, 280 g ae/ha, 21 DAA, percent reduction in plant size relative to untreated control.
Setting [13] is: 504 h, 560 g ae/ha, 21 DAA, percent reduction in plant size relative to untreated control.

Like-named read-outs stand apart in the source and are kept apart here.

In the case of `N#C/C(=N\OC(=O)COc1ccc(Cl)cc1Cl)c1ccccc1` [Compound A6, N-(2-(2,4-Dichlorophenoxy)acetoxy)benzimidoyl cyanide], the pest or weed control at 280 g/ha in series [1] (168 h) is 65%; in series [1] (336 h) it was 88%; in series [1] (504 h), 98%; in series [2] (168 h) it was 78%; in series [2] (336 h) it was 75%; in series [2] (504 h) it was 80%. The pest or weed control at 280 g/ha in series [3] (168 h) came out at 68%; in series [3] (336 h), 93%; in series [3] (504 h) it was 98%; in series [4] (168 h), 68%; in series [4] (336 h), 83%; in series [4] (504 h) it was 94%. In addition, the pest or weed control at 280 g/ha was determined as 72% in series [6] (168 h); 84% in series [6] (336 h); 88% in series [6] (504 h); 80% in series [7] (168 h); 83% in series [7] (336 h); 73% in series [7] (504 h). Further, the pest or weed control at 560 g/ha in series [1] (168 h) was 73%; in series [1] (336 h) it was 88%; in series [1] (504 h), 98%; in series [2] (168 h), 90%; in series [2] (336 h), 85%; in series [2] (504 h) it was 94%. Further, the pest or weed control at 560 g/ha in series [3] (168 h) came out at 70%; in series [3] (336 h), 95%; in series [3] (504 h) it was 100%; in series [4] (168 h), 68%; in series [4] (336 h), 78%; in series [4] (504 h), 73%. Also, the pest or weed control at 560 g/ha in series [6] (168 h) came out at 75%; in series [6] (336 h) it was 84%; in series [6] (504 h), 89%; in series [7] (168 h), 75%; in series [7] (336 h), 78%; in series [7] (504 h) it was 81%. Besides, the “TGA Data (rate of weight loss, volatility)” value in series [5] was found to be 7.2 µg/min.
As for `CCOC(=O)C(=NOC(=O)COc1ccc(Cl)cc1Cl)C(=O)OCC` [Compound A7, Diethyl 2-((2-(2,4-dichlorophenoxy)acetoxy)imino)malonate], the pest or weed control at 280 g/ha in series [1] (setting [8]) was found to be 68%; in series [1] (setting [10]), 89%; in series [1] (setting [12]) it was 93%; in series [2] (setting [8]), 75%; in series [2] (setting [10]), 83%; in series [2] (setting [12]), 92%. The pest or weed control at 280 g/ha is 63% in series [3] (setting [8]); 83% in series [3] (setting [10]); 92% in series [3] (setting [12]); 68% in series [4] (setting [8]); 75% in series [4] (setting [10]); 73% in series [4] (setting [12]). The pest or weed control at 280 g/ha in series [6] (168 h, 280 g ae/ha, 7 DAA, average over the five weeds) came to 69%; in series [6] (336 h, 280 g ae/ha, 14 DAA, average over the five weeds), 82%; in series [6] (504 h, 280 g ae/ha, 21 DAA, average over the five weeds), 88%; in series [7] (setting [8]) it was 73%; in series [7] (setting [10]) it was 83%; in series [7] (setting [12]) it was 90%. For the same compound, the pest or weed control at 560 g/ha in series [1] (setting [9]) turned out to be 73%; in series [1] (setting [11]), 83%; in series [1] (setting [13]), 90%; in series [2] (setting [9]), 88%; in series [2] (setting [11]) it was 89%; in series [2] (setting [13]), 94%. In addition, the pest or weed control at 560 g/ha amounted to 70% in series [3] (setting [9]); 95% in series [3] (setting [11]); 98% in series [3] (setting [13]); 70% in series [4] (setting [9]); 73% in series [4] (setting [11]); 78% in series [4] (setting [13]). Also, the pest or weed control at 560 g/ha in series [6] (168 h, 560 g ae/ha, 7 DAA, average over the five weeds) worked out at 76%; in series [6] (336 h, 560 g ae/ha, 14 DAA, average over the five weeds), 85%; in series [6] (504 h, 560 g ae/ha, 21 DAA, average over the five weeds), 89%; in series [7] (setting [9]) it was 78%; in series [7] (setting [11]), 88%; in series [7] (setting [13]) it was 88%. Further, the “TGA Data (rate of weight loss, volatility)” value in series [5] amounted to 4.7 µg/min.
Turning to `O=C(COc1ccc(Cl)cc1Cl)O/N=C/c1cccs1` [Compound A23], the “TGA Data (rate of weight loss, volatility)” value in series [5] is 0.3728 µg/min.
In the case of `O=C(COc1ccc(Cl)cc1Cl)ONC(=O)c1ccc(Cl)cc1` [Compound A28], the “TGA Data (rate of weight loss, volatility)” value in series [5] was determined as 0.3455 µg/min.
On the same count and under the same terms, under `O=C(COc1ccc(Cl)cc1Cl)OCOC(=O)COc1ccc(Cl)cc1Cl` [Compound B15, Methylene bis(2-(2,4-dichlorophenoxy)acetate)] stands 0.3 µg/min; under `O=C(COc1ccc(Cl)cc1Cl)Oc1ccncn1` [Compound E8], 0.7322 µg/min; under `O=C(COc1ccc(Cl)cc1Cl)Oc1ccncc1` [Compound E15], 0.03683 µg/min.
